Like-named read-outs stand apart in the source and are kept apart here. Starred links: 1 amine or outer side, 2 acyl side, 3 side chain; linkers in the order of their positions; H or OH if unused. Positions of bridges follow the written chain, without caps; N, C: chain ends. Non-standard residues stand in square brackets, D forms with d. Residues, ends and D or L forms follow the SMILES beside them. ξ: configuration not given here. X7 = COc1ccc(-c2[nH]c3ccccc3c2C[C@H](N[*:1])C(=O)[*:2])cc1; Phe(4-guanidino) = N=C(N)Nc1ccc(C[C@H](N)C(=O)O)cc1; Phe(3,4,5-F3) = N[C@@H](Cc1cc(F)c(F)c(F)c1)C(=O)O; Phe(3-CF3) = N[C@@H](Cc1cccc(C(F)(F)F)c1)C(=O)O; Pro(4R-NH2) = N[C@H]1CN[C@H](C(=O)O)C1; Bta = N[C@@H](Cc1csc2ccccc12)C(=O)O; Hyp = O=C(O)[C@@H]1C[C@@H](O)CN1; NMeF = CN[C@@H](Cc1ccccc1)C(=O)O; NMeNle = CCCC[C@H](NC)C(=O)O; ξR = N=C(N)NCCCC(N)C(=O)O; NMeA = CN[C@@H](C)C(=O)O; Dab = NCC[C@H](N)C(=O)O; dAze = O=C(O)[C@H]1CCN1; Dap = NC[C@H](N)C(=O)O; ξC = NC(CS)C(=O)O; Sar = CNCC(=O)O
Assays:
[1] = target: T1, LK35.2-hPD-L1 cells / PE-labeled PD-1-Ig (Homo sapiens, UniProt Q9NZQ7); experiment: LK35.2-hPD-L1 cell binding high-content screening assay; assay type: cell-based
T1 construct: expressed in transfected cells; host or cells: LK35.2 mouse B cell line
T1 sequence (Q9NZQ7 19-290): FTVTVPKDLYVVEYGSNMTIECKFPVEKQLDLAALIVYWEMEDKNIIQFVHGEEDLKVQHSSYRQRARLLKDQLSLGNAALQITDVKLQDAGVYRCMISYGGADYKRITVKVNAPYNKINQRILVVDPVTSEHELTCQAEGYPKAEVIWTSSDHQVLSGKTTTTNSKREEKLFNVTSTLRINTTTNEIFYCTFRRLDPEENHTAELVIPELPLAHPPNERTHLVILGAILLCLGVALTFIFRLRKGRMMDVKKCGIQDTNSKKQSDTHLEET
In short: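 Using overnight-cultured LK35.2-hPD-L1 mouse B cells, compound was co-incubated with phycoerythrin-tagged human PD-1-Ig (final 1 nM) at 37 °C for one hour. Unbound label was removed by triple dPBS washing prior to high-content image acquisition and analysis.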

Human PD-L1/PD-1 = target: T2, Human PD-L1/PD-1 (Homo sapiens, UniProt Q9NZQ7); experiment: HTRF PD-1-Ig/PD-L1-His binding assay (human PD-L1)
T2 construct: made in house; host or cells: HEK293T
T2 sequence (Q9NZQ7 with tags, fused parts or gaps): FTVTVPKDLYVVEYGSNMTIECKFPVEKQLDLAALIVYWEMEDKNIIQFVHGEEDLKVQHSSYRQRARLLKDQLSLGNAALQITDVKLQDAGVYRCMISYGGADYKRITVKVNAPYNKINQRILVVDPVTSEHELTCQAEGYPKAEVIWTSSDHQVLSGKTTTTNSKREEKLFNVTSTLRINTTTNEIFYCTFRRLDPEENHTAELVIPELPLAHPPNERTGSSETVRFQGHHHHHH
In short: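 Ig- and His-fused extracellular PD-1/PD-L1 binding in BSA/Tween-20 dPBS. HTRF with Eu anti-Ig (1 nM final) and APC anti-His (20 nM final).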

[2] = cell binding assay, cell line not given, cluster symbol, read-out: CBA IC50 cluster
[3] = cluster symbol, read-out: HTRF IC50 cluster
[4] = cluster symbol, cell line of CBA not given (LK35.2-hPD-L1 or 293T-hPD-L1), read-out: CBA IC50 cluster

Row | Structure (SMILES) | IC50 [1, 2] [nM] | IC50 (Human PD-L1/PD-1; [3]) [nM] | IC50 ([1]; cell line of CBA not given (LK35.2-hPD-L1 or 293T-hPD-L1), read-out: CBA IC50 value) [nM] | IC50 (Human PD-L1/PD-1; read-out: HTRF IC50 value) [nM] | IC50 [1, 4] [nM]
1 | CCCC[C@H]1C(=O)N(C)CC(=O)N[C@@H](CC(=O)O)C(=O)N[C@@H](C(C)C)C(=O)N(C)[C@@H](Cc2ccccc2)C(=O)N[C@@H](Cc2ccc(O)cc2)C(=O)N(C)CC(=O)N[C@@H](Cc2c[nH]c3ccccc23)C(=O)N[C@@H](Cc2ccc(O)cc2)C(=O)N[C@@H](CC(C)C)C(=O)N[C@H](C(=O)NCC(=O)O)CSCC(=O)N[C@@H](Cc2ccccc2)C(=O)N(C)[C@@H](Cc2ccccc2)C(=O)N1C [Example 3517] (HELM PEPTIDE1{[O=C(C[*:3])[*:2]].F.[meF].[CCCC[C@@H](C(=O)[*:2])N(C)[*:1]].[Sar].D.V.[meF].Y.[Sar].W.Y.L.C.G}$PEPTIDE1,PEPTIDE1,1:R3-14:R3$$$V2.0) | > 74.3 | > 30.5 |  |  | 
2 | CCCC[C@H]1C(=O)N(C)[C@@H](CCCC)C(=O)N[C@@H](CCCNC(=N)N)C(=O)NC(C(=O)NCC(N)=O)CSCC(=O)N[C@@H](Cc2ccccc2)C(=O)N(C)[C@@H](C)C(=O)N[C@@H](CC(N)=O)C(=O)N2CCC[C@H]2C(=O)N[C@@H](Cc2cnc[nH]2)C(=O)N[C@@H](CC(C)C)C(=O)N[C@@H](CCNC(=O)C2CCCCC2)C(=O)N[C@@H](Cc2c[nH]c3ccccc23)C(=O)N[C@@H](CO)C(=O)N[C@@H](Cc2c[nH]c3ccccc23)C(=O)N1C (some centres unmarked) [Example 1021] |  |  | 262 | 180 | 
3 | CCCC[C@H]1C(=O)N(C)[C@@H](CCCC)C(=O)N[C@@H](CCN)C(=O)N[C@H](C(=O)NCC(N)=O)CSCC(=O)N[C@@H](Cc2ccc(O)cc2)C(=O)N(C)[C@@H](C)C(=O)N[C@@H](CC(=O)O)C(=O)N2CCC[C@H]2C(=O)N[C@@H](Cc2cnc[nH]2)C(=O)N[C@@H](CCC(N)=O)C(=O)N2C[C@H](O)C[C@H]2C(=O)N[C@@H](Cc2c[nH]c3ccccc23)C(=O)N[C@@H](CCN)C(=O)N[C@@H](Cc2c[nH]c3ccccc23)C(=O)N1C [Example 5046] ({CH2CO}-Y[NMeA]DPHQ[Hyp]W[Dab]W[NMeNle][NMeNle][Dab]CG-NH2; thioether N-14) | > 74.3 | 0.385 to 6.74 |  |  | 
4 | CCCC[C@H]1C(=O)N2CCC[C@@H]2C(=O)N2C[C@H](N)C[C@H]2C(=O)N[C@@H](C(C)C)C(=O)N(C)[C@@H](Cc2ccccc2)C(=O)N[C@@H](Cc2ccc(O)cc2)C(=O)N2CC[C@@H]2C(=O)N[C@@H](Cc2c[nH]c3ccccc23)C(=O)N[C@@H](Cc2ccc(O)cc2)C(=O)N[C@@H](CC(C)C)C(=O)N[C@H](C(=O)NCC(N)=O)CSCC(=O)N[C@@H](Cc2cc(F)c(F)c(F)c2)C(=O)N(C)[C@@H](Cc2ccccc2)C(=O)N1C [Example 3192] ({CH2CO}-[Phe(3,4,5-F3)][NMeF][NMeNle][dP][Pro(4R-NH2)]V[NMeF]Y[dAze]WYLCG-NH2; thioether N-13) |  | 0.385 to 6.74 |  |  | 0.158 to 4.71
5 | CCCC[C@H]1C(=O)N(C)CC(=O)N[C@@H](CC(=O)O)C(=O)N[C@@H](C(C)C)C(=O)N(C)[C@@H](Cc2ccccc2)C(=O)N[C@@H](Cc2ccc(O)cc2)C(=O)N2CCC[C@@H]2C(=O)N[C@@H](Cc2c[nH]c3ccccc23)C(=O)N[C@@H](Cc2ccc(O)cc2)C(=O)N[C@@H](CC(C)C)C(=O)N[C@H](C(=O)NCC(N)=O)CSCC(=O)N[C@@H](Cc2ccccc2)C(=O)N(C)[C@@H](Cc2ccccc2)C(=O)N1C [Example 3562] (HELM PEPTIDE1{[O=C(C[*:3])[*:2]].F.[meF].[CCCC[C@@H](C(=O)[*:2])N(C)[*:1]].[Sar].D.V.[meF].Y.[dP].W.Y.L.C.G.[am]}$PEPTIDE1,PEPTIDE1,1:R3-14:R3$$$V2.0) | 0.158 to 4.71 | 6.76 to 30.3 |  |  | 
6 | CCCC[C@H]1C(=O)N(C)[C@@H](CCCC)C(=O)N[C@@H](CCCNC(=N)N)C(=O)N[C@H](C(=O)NCC(N)=O)CSCC(=O)N[C@@H](Cc2ccccc2)C(=O)N(C)[C@@H](C)C(=O)N[C@@H](CC(N)=O)C(=O)N2CCC[C@H]2C(=O)N[C@@H](CN)C(=O)N[C@@H](CC(C)C)C(=O)N(C)CC(=O)N[C@@H](Cc2c[nH]c3ccccc23)C(=O)N[C@@H](CO)C(=O)N[C@@H](Cc2c[nH]c3ccccc23)C(=O)N1C [Example 1060] ({CH2CO}-F[NMeA]NP[Dap]L[Sar]WSW[NMeNle][NMeNle]RCG-NH2; thioether N-14) |  | 6.76 to 30.3 |  |  | 4.78 to 72.9
7 | CCCC[C@H]1C(=O)N(C)[C@@H](CCCC)C(=O)N[C@@H](CCCNC(=N)N)C(=O)NC(C(=O)NCC(N)=O)CSCC(=O)N[C@@H](Cc2ccc(O)cc2)C(=O)N(C)[C@@H](C)C(=O)N[C@@H](CC(N)=O)C(=O)N2CCC[C@H]2C(=O)N[C@@H](Cc2cnc[nH]2)C(=O)N[C@@H](CC(N)=O)C(=O)N2CCC[C@H]2C(=O)N[C@@H](Cc2c[nH]c3ccccc23)C(=O)N[C@@H](CO)C(=O)N[C@@H](Cc2csc3ccccc23)C(=O)N1C (some centres unmarked) [Example 9064] ({CH2CO}-Y[NMeA]NPHNPWS[Bta][NMeNle][NMeNle]R[ξC]G-NH2; thioether N-14) | 0.158 to 4.71 | 0.385 to 6.74 |  |  | 
8 | CCCC[C@H]1C(=O)N(C)[C@@H](CCCC)C(=O)N[C@@H](CCCCN)C(=O)N[C@H](C(=O)NCC(N)=O)CSCC(=O)N[C@@H](Cc2ccc(O)cc2)C(=O)N(C)[C@@H](C)C(=O)N[C@@H](CC(N)=O)C(=O)N2CCC[C@H]2C(=O)N[C@@H](Cc2cnc[nH]2)C(=O)N[C@@H](CC(C)C)C(=O)N2CCC[C@H]2C(=O)N[C@@H](Cc2c[nH]c3ccccc23)C(=O)N[C@@H](CO)C(=O)N[C@@H](Cc2csc3ccccc23)C(=O)N1C [Example 1041] ({CH2CO}-Y[NMeA]NPHLPWS[Bta][NMeNle][NMeNle]KCG-NH2; thioether N-14) |  | 6.76 to 30.3 |  |  | 0.158 to 4.71

Now from value to compound:

Row | IC50 [1, 2] [nM] | IC50 (Human PD-L1/PD-1; [3]) [nM] | IC50 ([1]; cell line of CBA not given (LK35.2-hPD-L1 or 293T-hPD-L1), read-out: CBA IC50 value) [nM] | IC50 (Human PD-L1/PD-1; read-out: HTRF IC50 value) [nM] | IC50 [1, 4] [nM] | Structure (SMILES)
9 | > 74.3 | > 30.5 |  |  |  | CCCC[C@H]1C(=O)N(C)[C@@H](CCCC)C(=O)N[C@@H](CCCNC(=N)N)C(=O)N[C@H](C(=O)NCC(N)=O)CSCC(=O)N[C@@H](Cc2ccc(N=C(N)N)cc2)C(=O)N(C)[C@@H](C)C(=O)N[C@@H](CC(N)=O)C(=O)N2CCC[C@H]2C(=O)N[C@@H](CN)C(=O)N[C@@H](CC(C)C)C(=O)N2C[C@H](O)C[C@H]2C(=O)N[C@@H](Cc2c[nH]c3ccccc23)C(=O)N[C@@H](CO)C(=O)N[C@@H](Cc2c[nH]c3ccccc23)C(=O)N1C [Example 7064] ({CH2CO}-[Phe(4-guanidino)][NMeA]NP[Dap]L[Hyp]WSW[NMeNle][NMeNle]RCG-NH2; thioether N-14)
10 |  | 6.76 to 30.3 |  |  | 0.158 to 4.71 | CCCC[C@H]1C(=O)N(C)[C@@H](CCCC)C(=O)N[C@@H](CCCNC(=N)N)C(=O)N[C@H](C(=O)NCC(N)=O)CSCC(=O)N[C@@H](Cc2ccc(O)cc2)C(=O)N(C)[C@@H](C)C(=O)N[C@@H](CC(N)=O)C(=O)N2CCC[C@H]2C(=O)N[C@@H](Cc2cnc[nH]2)C(=O)N[C@@H](CC(C)C)C(=O)N2C[C@H](O)C[C@H]2C(=O)N[C@@H](Cc2c[nH]c3ccccc23)C(=O)N[C@@H](CN)C(=O)N[C@@H](Cc2c[nH]c3ccccc23)C(=O)N1C [Example 1135] ({CH2CO}-Y[NMeA]NPHL[Hyp]W[Dap]W[NMeNle][NMeNle]RCG-NH2; thioether N-14)
11 | 0.158 to 4.71 | 0.385 to 6.74 |  |  |  | CCCC[C@H]1C(=O)N(C)[C@@H](CCCC)C(=O)NC(CCCNC(=N)N)C(=O)N[C@H](C(=O)NCC(N)=O)CSCC(=O)N[C@@H](Cc2ccc(O)cc2)C(=O)N(C)[C@@H](C)C(=O)N[C@@H](CC(N)=O)C(=O)N2CCC[C@H]2C(=O)N[C@@H](CN)C(=O)N[C@@H](CC(C)C)C(=O)N2C[C@H](O)C[C@H]2C(=O)N[C@@H](Cc2c[nH]c3ccccc23)C(=O)N[C@@H](CO)C(=O)N[C@@H](Cc2c(-c3ccc(OC)cc3)[nH]c3ccccc23)C(=O)N1C (some centres unmarked) [Example 7006] ({CH2CO}-Y[NMeA]NP[Dap]L[Hyp]WS[X7][NMeNle][NMeNle][ξR]CG-NH2; thioether N-14)
12 | > 74.3 | 6.76 to 30.3 |  |  |  | CCCC[C@H]1C(=O)N(C)[C@@H](CCCC)C(=O)N[C@@H](CCCNC(=N)N)C(=O)N[C@H](C(=O)NCC(N)=O)CSCC(=O)N[C@@H](Cc2cccc(C(F)(F)F)c2)C(=O)N(C)[C@@H](C)C(=O)N[C@@H](CC(N)=O)C(=O)N2CCC[C@H]2C(=O)N[C@@H](Cc2cnc[nH]2)C(=O)N[C@@H](CC(C)C)C(=O)N2C[C@H](O)C[C@H]2C(=O)N[C@@H](Cc2c[nH]c3ccccc23)C(=O)N[C@@H](CO)C(=O)N[C@@H](Cc2c[nH]c3ccccc23)C(=O)N1C [Example 7056] ({CH2CO}-[Phe(3-CF3)][NMeA]NPHL[Hyp]WSW[NMeNle][NMeNle]RCG-NH2; thioether N-14)
13 | > 74.3 | > 30.5 |  |  |  | CCCC[C@H]1C(=O)N(C)[C@@H](CCCC)C(=O)N[C@@H](CCCNC(=N)N)C(=O)NC(C(=O)NCC(N)=O)CSCC(=O)N[C@@H](Cc2ccc(O)cc2)C(=O)N(C)[C@@H](C)C(=O)N[C@@H](CC(N)=O)C(=O)N2CCC[C@H]2C(=O)N[C@@H](Cc2c[nH]cn2)C(=O)N[C@@H](C)C(=O)N[C@@H](CC(C)C)C(=O)N2CCC[C@H]2C(=O)N[C@@H](Cc2c[nH]c3ccccc23)C(=O)N[C@@H](CO)C(=O)N[C@@H](Cc2c[nH]c3ccccc23)C(=O)N1C (some centres unmarked) [Example 10517] ({CH2CO}-Y[NMeA]NPHALPWSW[NMeNle][NMeNle]R[ξC]G-NH2; thioether N-15)
